{"source": "patent US20220202818A1", "about": "“COMBINATION WITH CHECKPOINT INHIBITORS TO TREAT CANCER” (The Regents of the University of Michigan, priority 2019, published 2022)", "key": {"[1]": {"system": "SCC7 head and neck tumors", "experiment": "In vivo study in C3H mice bearing SCC7 head and neck tumors", "experimental": "(§1) Female 6- to 7-week old C3H mice or BALB/c mice were implanted subcutaneously with 1×10^6 cultured SCC7 cells or CT-26 (murine colorectal carcinoma) cells into the region of the right axilla. Female 6- to 7-week old BALB/c mice were implanted with 2×10^6 cultured EMT-6 (murine mammary carcinoma) cells subcutaneously into the mammary fat pad. Mice were randomized into treatment groups and treatments initiated when tumors reached 60 to 100 mg. MOL-211 was administered daily by oral gavage at a dose of 50 mg/kg for the duration of the study and was prepared as a 5 mg/mL solution in 1:2 PG:1% Tween80/Na3PO4, based upon individual animal body weight (0.2 mL/20 g). PD-1 antibody was purchased from BioXcell (Lebanon, N.H.) and administered intraperitoneally (IP) at a dose of 10 mg/kg every third day. Subcutaneous tumor volume and body weights were measured three times a week. Tumor volumes were calculated by measuring two perpendicular diameters with calipers and using the formula: tumor volume=(length×width^2)/2. Individual animals were dosed until progression, defined as the time at which tumor burden reached 1000 mg. […] Animal body weight was monitored three times weekly (FIG. 4D, FIG. 5D, FIG. 6C)."}, "PD-L1": {"system": "PD-L1", "experiment": "Western blot of PD-L1 protein in KPC-2 cells treated in vitro", "assay_type": "cell-based", "conditions": "KPC-2 cells in culture; 10 micromolar; 24 and 48 hours; compared to DMSO", "experimental": "KPC-2 cells were also grown in culture and treated for either 24 or 48 hours with DMSO or MOL-211 at a final concentration of 10 micromolar. Cells were harvested and manually homogenized in lysis buffer [25 mmol/L Tris-HCl (pH7.6), 150 mmol/L NaCl, 1% Nonidet P-40, 10% glycerol, 1 mmol/L dithiothreitol, and protease and phosphatase inhibitors], rocked for 30 minutes at 4° C., and centrifuged at 14,000 rpm for 20 min at 4° C. Protein concentration was determined by BioRad Protein Assays and lysates were subsequently subjected to SDS gel electrophoresis. Proteins were transferred to polyvinylidene fluoride membranes and probed with a primary antibody recognizing PD-L1 (Abcam, Cambridge, UK) and beta-actin. After incubation with anti-rabbit HRP-linked secondary antibody (Jackson ImmunoResearch Laboratories, West Grove, Pa.), proteins were detected using chemiluminescence (GE Healthcare, Chicago, Ill.)."}, "KPC pancreatic tumors": {"system": "KPC pancreatic tumors", "experiment": "In vivo efficacy of MOL-211 alone and with PD-1 antibody in mice bearing KPC pancreatic tumors", "experimental": "In vivo studies were conducted to evaluate the efficacy of MOL-211 alone and in combination with PD-1 antibody in mice bearing KPC pancreatic tumors (FIG. 1A-FIG. 1E). Mice were treated daily with MOL-211 (50 mg/kg) administered by oral gavage; anti-PD-1 antibody was administered twice a week via IP injection. Mice were analyzed subsequent to tumor implantation for over 90 days using a vehicle control; MOL-211 at 50 mg/kg; anti-PD-1 antibody at 10 mg/kg; and a combination of MOL-211 and anti-PD-1.\nA partial responder (PR) is defined as a tumor that regressed to 50% of the baseline tumor volume. A complete responder (CR) is defined as a tumor below the limits of palpation (40 mg). The ΔT/ΔC ratio is the ratio of tumor volume change (treated/control) from first day of treatment to last day of treatment. Median ILS represents median increase in lifespan."}, "[2]": {"system": "EMT-6 (murine mammary carcinoma) tumors", "experiment": "In vivo study in female BALB/c mice bearing EMT-6 (murine mammary carcinoma) tumors", "conditions": "EMT-6 tumor-bearing mice; FIG. 6B", "experimental": "as §1"}, "[3]": {"system": "CT-26 (murine colorectal carcinoma) tumors", "experiment": "In vivo study in BALB/c mice bearing CT-26 (murine colorectal carcinoma) tumors", "conditions": "FIG. 5A", "experimental": "as §1"}}}
{"compound": "CS(=O)(=O)Nc1cc(-c2ccc3ncnc(Nc4ccc(F)c(Cl)c4)c3c2)cnc1Cl", "note": "[MOL-211, N-(2-chloro-5-(4-((3-chloro-4-fluorophenyl)amino)quinazolin-6-yl)pyridin-3-yl)methanesulfonamide]", "values": [{"measurement": "calculated increase in lifespan (ILS)", "setting": "[1]; C3H mice bearing SCC7 tumors, MOL-211 50 mg/kg, PD-1 antibody 10 mg/kg, FIG. 4A", "value": 206, "unit": "%"}, {"measurement": "reduction in mean tumor volumes", "setting": "[1]; mice bearing SCC7 tumors, compared with PD-1 antibody monotherapy, FIG. 4B", "value": "superior to PD-1 antibody monotherapy"}, {"measurement": "PD-L1 protein levels (western blot)", "setting": "PD-L1", "value": "reduced PD-L1 protein levels"}, {"measurement": "Median ILS (median increase in lifespan)", "setting": "KPC pancreatic tumors", "value": 82, "unit": "%"}, {"measurement": "ΔT/ΔC (Day 19)", "setting": "KPC pancreatic tumors; ratio of tumor volume change (treated/control) from first to last day of treatment, MOL-211 50 mg/kg daily oral gavage, PD-1 antibody 10 mg/kg/kg IP", "value": 21, "unit": "%"}, {"measurement": "CRs (complete responders)", "setting": "KPC pancreatic tumors; tumor below the limits of palpation (40 mg)", "value": 0, "unit": "%"}, {"measurement": "PRs (partial responders)", "setting": "KPC pancreatic tumors; tumor regressed to 50% of baseline tumor volume", "value": 0}, {"measurement": "reduction in tumor volume compared to vehicle control", "setting": "[2]", "value": "did not result in a statistically significant reduction in tumor volume"}, {"measurement": "calculated increase in lifespan (ILS)", "setting": "[3]; BALB/c mice bearing CT-26 tumors, MOL-211 50 mg/kg, PD-1 antibody 10 mg/kg", "value": 22, "unit": "%"}, {"measurement": "increase in survival", "setting": "[3]; mice bearing CT-26 tumors", "value": "Neither single agent nor combination treatment with MOL-211 and PD-1 antibody resulted in a therapeutically meaningful increase in survival"}]}
